Assay results from US9637472B2, “Substituted 6,5-fused bicyclic heteroaryl compounds” (Epizyme, Inc., priority 2011, dated 2017).
pIC50: −log10 of the molar value.

Molecular target: EZH2 (Homo sapiens (Human), UniProt Q15910)
Assay: PRC2 enzyme assay on peptide substrates
Format: biochemical
Conditions: PRC2 enzyme assays on peptide substrates; 4 nM enzyme, 30 min preincubation at 25° C.; read-out: EZH2 IC50

EZH2, sequence (Q15910 other isoform, or with tags, fused parts or gaps): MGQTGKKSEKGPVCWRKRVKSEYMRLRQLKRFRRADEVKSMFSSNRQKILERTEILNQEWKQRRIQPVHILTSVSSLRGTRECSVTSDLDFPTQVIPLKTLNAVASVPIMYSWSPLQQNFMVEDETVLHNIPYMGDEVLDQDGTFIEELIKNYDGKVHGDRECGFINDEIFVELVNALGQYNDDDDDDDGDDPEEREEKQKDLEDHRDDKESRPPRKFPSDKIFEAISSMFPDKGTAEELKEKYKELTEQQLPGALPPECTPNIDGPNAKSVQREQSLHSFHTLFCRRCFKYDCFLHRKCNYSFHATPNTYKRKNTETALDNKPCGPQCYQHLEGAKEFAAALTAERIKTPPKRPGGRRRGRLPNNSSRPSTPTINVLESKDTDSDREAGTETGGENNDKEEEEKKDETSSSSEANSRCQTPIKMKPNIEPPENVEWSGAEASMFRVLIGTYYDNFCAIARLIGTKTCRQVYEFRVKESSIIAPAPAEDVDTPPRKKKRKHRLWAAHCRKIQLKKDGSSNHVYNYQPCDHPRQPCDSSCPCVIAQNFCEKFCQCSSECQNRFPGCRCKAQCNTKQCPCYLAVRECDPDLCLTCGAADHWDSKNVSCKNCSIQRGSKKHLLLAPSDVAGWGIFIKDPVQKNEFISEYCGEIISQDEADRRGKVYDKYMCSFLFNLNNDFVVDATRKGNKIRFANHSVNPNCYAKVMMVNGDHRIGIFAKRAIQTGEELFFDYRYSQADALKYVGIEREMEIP
EZH2, sequence (O75530 whole entry partner): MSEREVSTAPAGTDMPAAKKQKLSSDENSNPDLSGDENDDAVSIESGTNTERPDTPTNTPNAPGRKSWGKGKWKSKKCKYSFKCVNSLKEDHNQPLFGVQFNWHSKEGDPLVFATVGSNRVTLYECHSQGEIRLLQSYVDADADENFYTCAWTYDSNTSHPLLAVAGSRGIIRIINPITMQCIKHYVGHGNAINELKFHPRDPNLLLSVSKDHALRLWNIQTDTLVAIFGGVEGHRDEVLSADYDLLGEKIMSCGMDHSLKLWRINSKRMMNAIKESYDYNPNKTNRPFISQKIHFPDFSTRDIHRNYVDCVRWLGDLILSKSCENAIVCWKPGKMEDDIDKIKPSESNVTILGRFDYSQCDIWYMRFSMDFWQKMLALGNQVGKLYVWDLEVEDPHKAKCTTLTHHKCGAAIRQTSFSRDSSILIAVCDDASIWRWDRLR
EZH2, sequence (Q15022 whole entry partner): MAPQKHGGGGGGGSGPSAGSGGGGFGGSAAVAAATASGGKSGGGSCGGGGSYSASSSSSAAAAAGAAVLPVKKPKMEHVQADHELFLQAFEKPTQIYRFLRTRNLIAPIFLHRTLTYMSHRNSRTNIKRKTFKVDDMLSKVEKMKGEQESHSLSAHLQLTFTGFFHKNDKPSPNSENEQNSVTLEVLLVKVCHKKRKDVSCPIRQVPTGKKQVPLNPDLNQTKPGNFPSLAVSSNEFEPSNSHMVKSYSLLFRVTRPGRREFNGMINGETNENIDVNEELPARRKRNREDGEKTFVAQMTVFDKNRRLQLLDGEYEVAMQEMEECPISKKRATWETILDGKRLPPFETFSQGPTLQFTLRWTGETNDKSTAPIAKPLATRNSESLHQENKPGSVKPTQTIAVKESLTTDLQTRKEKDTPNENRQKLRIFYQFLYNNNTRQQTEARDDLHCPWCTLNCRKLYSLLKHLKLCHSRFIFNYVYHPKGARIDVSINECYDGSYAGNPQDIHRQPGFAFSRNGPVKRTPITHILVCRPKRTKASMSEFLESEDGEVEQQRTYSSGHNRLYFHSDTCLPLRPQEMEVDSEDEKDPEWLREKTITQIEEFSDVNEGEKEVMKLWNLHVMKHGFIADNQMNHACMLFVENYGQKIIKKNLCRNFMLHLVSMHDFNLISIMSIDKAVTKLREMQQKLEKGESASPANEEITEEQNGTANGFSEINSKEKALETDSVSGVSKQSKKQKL
EZH2, sequence (Q09028 whole entry partner): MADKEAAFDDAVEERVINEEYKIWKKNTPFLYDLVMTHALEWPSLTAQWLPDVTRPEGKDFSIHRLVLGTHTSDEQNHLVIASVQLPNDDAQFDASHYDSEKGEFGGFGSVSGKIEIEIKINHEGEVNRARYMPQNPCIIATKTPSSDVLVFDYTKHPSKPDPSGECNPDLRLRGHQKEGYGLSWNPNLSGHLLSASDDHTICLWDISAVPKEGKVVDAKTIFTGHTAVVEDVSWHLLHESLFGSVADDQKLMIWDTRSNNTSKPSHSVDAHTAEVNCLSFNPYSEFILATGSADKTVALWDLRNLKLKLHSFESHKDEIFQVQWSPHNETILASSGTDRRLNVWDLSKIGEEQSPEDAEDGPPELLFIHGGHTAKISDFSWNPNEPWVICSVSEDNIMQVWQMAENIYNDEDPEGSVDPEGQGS

`Cc1cc(C)c(CNC(=O)c2cc(Br)cc3c2cnn3C2CCN(Cc3ccccc3)CC2)c(=O)[nH]1` [Compound D-15, 1-(1-benzylpiperidin-4-yl)-6-bromo-N-((4,6-dimethyl-2-oxo-1,2-dihydropyridin-3-yl)methyl)-1H-indazole-4-carboxamide] was tested, and the pIC50 was 6.00 to 6.52.
With `Cc1cc(C)c(CNC(=O)c2cc(-c3ccc(N4CCN(C)CC4)nc3)nc3c2cnn3-c2ccccc2)c(=O)[nH]1` [Compound A-109] the pIC50 was 4.30 to 5.00.
Compound `CNCCCOc1cccc(-c2cc(C(=O)NCc3c(C)cc(C)[nH]c3=O)c3cnn(C4CCCC4)c3c2)c1` [Compound C-10, 1-cyclopentyl-N-((4,6-dimethyl-2-oxo-1,2-dihydropyridin-3-yl)methyl)-6-(3-(3-(methylamino)propoxy)phenyl)-1H-indazole-4-carboxamide] has a pIC50 of over 6.52.
In the case of `Cc1cc(C)c(CNC(=O)c2cc(CN3CCC[C@@H]3C(N)=O)cc3c2cnn3C2CCCC2)c(=O)[nH]1` [Compound D-93], the pIC50 was 6.00 to 6.52.
With `Cc1cc(C)c(CNC(=O)c2cc(C3=CC(C)(C)NC(C)(C)C3)nc3c2cnn3C2CCN(Cc3ccccc3)CC2)c(=O)[nH]1` [Compound B-1, 1-(1-benzylpiperidin-4-yl)-N-((4,6-dimethyl-2-oxo-1,2-dihydropyridin-3-yl)methyl)-6-(2,2,6,6-tetramethyl-1,2,3,6-tetrahydropyridin-4-yl)-1H-pyrazolo[3,4-b]pyridine-4-carboxamide] the pIC50 was over 6.52.
With `Cc1cc(C)c(CNC(=O)c2cc(C3=CC(C)(C)NC(C)(C)C3)nc3c2cnn3C2CCNCC2)c(=O)[nH]1` [Compound B-107] the pIC50 was 5.52 to 6.00.
In the case of `Cc1cc(C)c(CNC(=O)c2cc(CNCCO)cc3c2cnn3C2CCCC2)c(=O)[nH]1` [Compound D-77], the pIC50 was 5.52 to 6.00.
With `Cc1cc(C)c(CNC(=O)c2cc(-c3ccc(CN(C)CCN4CCCC4)cc3)nc3c2cnn3C(C)C)c(=O)[nH]1` [Compound A-21] the pIC50 was 6.00 to 6.52.
In the case of `Cc1cc[nH]c(=O)c1CNC(=O)c1cc(-c2ccc3c(c2)OCCO3)nc2c1cnn2C(C)C` [Compound A-77], the pIC50 was 4.30 to 5.00.
Compound `CCc1cc(C)[nH]c(=O)c1CNC(=O)c1cc(C2=CC(C)(C)NC(C)(C)C2)nc2c1cnn2C(C)C` [Compound B-25, N-((4-ethyl-6-methyl-2-oxo-1,2-dihydropyridin-3-yl)methyl)-1-isopropyl-6-(2,2,6,6-tetramethyl-1,2,3,6-tetrahydropyridin-4-yl)-1H-pyrazolo[3,4-b]pyridine-4-carboxamide] has a pIC50 of over 6.52.
For `Cc1cc(CN(C)C)c(CNC(=O)c2cc(Br)cc3c2cnn3C2CCCC2)c(=O)[nH]1` [Compound D-17, 6-bromo-1-cyclopentyl-N-((4-((dimethylamino)methyl)-6-methyl-2-oxo-1,2-dihydropyridin-3-yl)methyl)-1H-indazole-4-carboxamide], the pIC50 was over 6.52.
Work on `Cc1cc(C)c(CNC(=O)c2cc(C3CCOCC3)nc3c2cnn3C(C)C)c(=O)[nH]1` [Compound B-129] yielded a pIC50 of 5.00 to 5.52.
`Cc1cc(C)c(CNC(=O)c2cc(CO)nc3c2cnn3C(C)C)c(=O)[nH]1` [Compound B-113] was tested, and the pIC50 was 5.52 to 6.00.
Work on `Cc1cc(C)c(CNC(=O)c2cc(-c3ccc(CN4CCOCC4)cn3)cc3c2cnn3C2CCCC2)c(=O)[nH]1` [Compound C-15, 1-cyclopentyl-N-((4,6-dimethyl-2-oxo-1,2-dihydropyridin-3-yl)methyl)-6-(5-(morpholinomethyl)pyridin-2-yl)-1H-indazole-4-carboxamide] yielded a pIC50 of over 6.52.
With `Cc1cc(C)c(CNC(=O)c2cc(C3=CC(C)(C)NC(C)(C)C3)cc3c2cnn3C2CCN(C(=O)C(C)(C)C)CC2)c(=O)[nH]1` [Compound D-25] the pIC50 was over 6.52.
In the case of `Cc1cc(C)c(CNC(=O)c2cc(Br)cc3c2cnn3C2CCN(C(=O)OC(C)(C)C)C2)c(=O)[nH]1` [Compound D-32], the pIC50 was 6.00 to 6.52.
For `Cc1cc(C)c(CNC(=O)c2cc(CN(C)CCN(C)C)cc3c2cnn3C2CCCC2)c(=O)[nH]1` [Compound D-78], the pIC50 was 5.52 to 6.00.
`CC(=O)N1CC=C(c2cc(C(=O)NCc3c(C)cc(C)[nH]c3=O)c3cnn(C4CCCC4)c3c2)CC1` [Compound D-4, 6-(1-acetyl-1,2,3,6-tetrahydropyridin-4-yl)-1-cyclopentyl-N-((4,6-dimethyl-2-oxo-1,2-dihydropyridin-3-yl)methyl)-1H-indazole-4-carboxamide] showed a pIC50 of over 6.52.
`Cc1cc(C)c(CNC(=O)c2cc(C3=CCN(C(=O)C4CCN(C)CC4)CC3)nc3c2cnn3C(C)C)c(=O)[nH]1` [Compound B-34, N-((4,6-dimethyl-2-oxo-1,2-dihydropyridin-3-yl)methyl)-1-isopropyl-6-(1-(1-methylpiperidine-4-carbonyl)-1,2,3,6-tetrahydropyridin-4-yl)-1H-pyrazolo[3,4-b]pyridine-4-carboxamide] gave a pIC50 of over 6.52.
`Cc1ccc(CNC(=O)c2cc(-c3cccc(CN(C)CCN(C)C)c3)nc3c2cnn3C(C)C)c(=O)[nH]1` [Compound A-99] was tested, and the pIC50 was 4.30 to 5.00.
For `Cc1cc(C)c(CNC(=O)c2cc(-c3cnc(N)nc3)cc3c2cnn3C2CCCC2)c(=O)[nH]1` [Compound C-30], the pIC50 was over 6.52.
With `Cc1cc(C)c(CNC(=O)c2cc(-c3ccc(N)nc3)nc3c2cnn3C(C)C)c(=O)[nH]1` [Compound A-50] the pIC50 was 5.52 to 6.00.
For `Cc1cc(C)c(CNC(=O)c2cc(C3CCN(C(=O)CCN)CC3)nc3c2cnn3C(C)C)c(=O)[nH]1` [Compound B-62], the pIC50 was 6.00 to 6.52.
Compound `Cc1cc(C)c(CNC(=O)c2cc(N3CCC(N(C)C)CC3)nc3c2cnn3C(C)C)c(=O)[nH]1` [Compound B-86] has a pIC50 of 5.52 to 6.00.
Compound “1-cyclopentyl-N-((4,6-dimethyl-2-oxo-1,2-dihydropyridin-3-yl)methyl)-6-(2,2,6,6-tetramethylpiperidin-4-yl)-1H-pyrazolo[3,4-b]pyridine-4-carboxamide [Compound B-4]” has a pIC50 of over 6.52.
In the case of `Cc1cc(C)c(CNC(=O)c2cc(-c3cccc(CNCCN4CCOCC4)c3)nc3c2cnn3C(C)C)c(=O)[nH]1` [Compound A-126], the pIC50 was 6.00 to 6.52.
Compound `Cc1cc(C)c(CNC(=O)c2cc(C3=CCN(C(=O)CCN)CC3)nc3c2cnn3C(C)C)c(=O)[nH]1` [Compound B-49] has a pIC50 of 6.00 to 6.52.
For `Cc1cc(C)c(CNC(=O)c2cc(CN3CCN(C)CC3)cc3c2cnn3C2CCCC2)c(=O)[nH]1` [Compound D-7], the pIC50 was over 6.52.
With `Cc1cc(C)c(CNC(=O)c2cc(C3CCN(C)CC3)nc3c2cnn3C(C)C)c(=O)[nH]1` [Compound B-73] the pIC50 was 6.00 to 6.52.
With `Cc1cc(C)c(CNC(=O)c2cc(C3=CCN(C(=O)[C@@H](N)CO)CC3)nc3c2cnn3C(C)C)c(=O)[nH]1` [Compound B-66] the pIC50 was 6.00 to 6.52.
In the case of `Cc1cc(C)c(CNC(=O)c2cc(-c3ccc(CN4CCOCC4)nc3)cc3c2cnn3C2CCCC2)c(=O)[nH]1` [Compound C-2, 1-cyclopentyl-N-((4,6-dimethyl-2-oxo-1,2-dihydropyridin-3-yl)methyl)-6-(6-(morpholinomethyl)pyridin-3-yl)-1H-indazole-4-carboxamide], the pIC50 was over 6.52.
`Cc1cc(C)c(CNC(=O)c2cc(-c3cccc(CN(C)CCN4CCCC4)c3)cc3c2cnn3C(C)C)c(=O)[nH]1` [Compound A-41] gave a pIC50 of 6.00 to 6.52.
With `Cc1cc(C)c(CNC(=O)c2cc(C(=O)N3CCC(N4CCN(C)CC4)CC3)nc3c2cnn3C(C)C)c(=O)[nH]1` [Compound B-128] the pIC50 was 5.00 to 5.52.
`Cc1cc(C)c(CNC(=O)c2cc(C3CCN(CCN(C)C)CC3)cc3c2cnn3C2CCCC2)c(=O)[nH]1` [Compound D-46] was tested, and the pIC50 was over 6.52.
Work on `Cc1cc(C)c(CNC(=O)c2cc(-c3cccc(C[N+](C)(C)CCO)c3)cc3c2cnn3C2CCCC2)c(=O)[nH]1` [Compound C-19] yielded a pIC50 of over 6.52.
